Data taken from US8536354B2, “Steroidal ligands and their use in gene switch modulation” (Intrexon Corporation, priority 2008, dated 2013).
Values after ≈ are worked out from the molar mass of the structure shown. Values joined by “and” are separate entries in the source; they are usually repeats but may differ in a detail not shown here. Identical values can stand only once. Like-named read-outs stand apart in the source and are kept apart here.

Columns and labels:
[1] = molecular target: T1, wild-type Choristoneura fumiferana EcR (CfEcR-DEF) (Choristoneura fumiferana, UniProt O77255); assay: Two-hybrid gene switch assay, wild-type CfEcR-DEF (GAL4-EcR / VP16-RXR-USP chimera, luciferase) in NIH3T3 cells
T1 sequence (O77255 219-541): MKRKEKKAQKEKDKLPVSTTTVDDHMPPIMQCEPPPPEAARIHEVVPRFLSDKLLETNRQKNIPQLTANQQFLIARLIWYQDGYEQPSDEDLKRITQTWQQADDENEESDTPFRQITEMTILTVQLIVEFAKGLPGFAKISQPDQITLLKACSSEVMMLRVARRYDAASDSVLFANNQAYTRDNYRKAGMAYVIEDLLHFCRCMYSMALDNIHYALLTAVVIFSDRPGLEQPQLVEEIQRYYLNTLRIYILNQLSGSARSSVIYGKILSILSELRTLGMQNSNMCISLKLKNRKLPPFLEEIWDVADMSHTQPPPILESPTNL
T1 sequence (P28702 299-449 partner): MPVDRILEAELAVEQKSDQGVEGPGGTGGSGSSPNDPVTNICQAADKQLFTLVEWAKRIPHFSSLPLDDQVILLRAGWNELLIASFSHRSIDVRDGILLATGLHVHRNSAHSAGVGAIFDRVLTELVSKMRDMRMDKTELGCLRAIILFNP

[2] = molecular target: T2, wild-type Aedes aegypti EcR (AaEcR-DEF) (Aedes aegypti, UniProt P49880); assay: Two-hybrid gene switch assay, AaEcR-DEF in NIH3T3 cells
T2 sequence (P49880 405-776 limits assumed): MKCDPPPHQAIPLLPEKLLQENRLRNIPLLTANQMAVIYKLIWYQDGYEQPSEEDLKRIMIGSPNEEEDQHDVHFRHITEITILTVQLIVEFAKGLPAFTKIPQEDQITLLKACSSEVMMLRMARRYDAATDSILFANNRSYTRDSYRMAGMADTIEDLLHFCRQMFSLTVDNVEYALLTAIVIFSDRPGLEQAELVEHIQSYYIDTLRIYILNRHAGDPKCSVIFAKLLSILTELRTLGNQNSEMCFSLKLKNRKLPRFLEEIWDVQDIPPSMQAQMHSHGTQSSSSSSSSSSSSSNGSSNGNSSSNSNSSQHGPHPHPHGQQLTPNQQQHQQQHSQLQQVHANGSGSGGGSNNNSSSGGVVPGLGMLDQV

[3] = molecular target: T3, wild-type Drosophila melanogaster EcR (DmEcR-DEF) (Drosophila melanogaster, UniProt P34021); assay: Two-hybrid gene switch assay, DmEcR-DEF in NIH3T3 cells
T3 sequence (P34021 342-878 limits assumed): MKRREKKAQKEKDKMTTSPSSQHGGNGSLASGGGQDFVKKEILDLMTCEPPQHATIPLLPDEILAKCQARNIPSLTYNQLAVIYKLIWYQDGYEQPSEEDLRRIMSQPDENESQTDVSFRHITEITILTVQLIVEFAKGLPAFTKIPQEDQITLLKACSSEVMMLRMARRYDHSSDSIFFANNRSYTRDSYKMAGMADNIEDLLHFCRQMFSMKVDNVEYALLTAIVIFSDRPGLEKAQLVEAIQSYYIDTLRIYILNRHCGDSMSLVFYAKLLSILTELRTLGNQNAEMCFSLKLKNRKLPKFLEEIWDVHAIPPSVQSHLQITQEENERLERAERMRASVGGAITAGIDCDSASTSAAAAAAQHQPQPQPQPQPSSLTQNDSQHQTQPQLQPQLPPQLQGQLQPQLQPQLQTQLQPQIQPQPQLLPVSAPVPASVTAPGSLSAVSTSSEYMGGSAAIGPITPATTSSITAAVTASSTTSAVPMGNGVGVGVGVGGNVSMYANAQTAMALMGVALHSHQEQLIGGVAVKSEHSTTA

[4] = test system: D. melanogaster BII cell line (expresses the ecdysteroid receptor complex EcR-USP); assay: Drosophila melanogaster BII cell line bioassay (turbidometric; agonist and antagonist versions)
[5] = molecular target: T4, Manduca sexta EcR (MsEcR) (Manduca sexta, UniProt P49883); assay: Two-hybrid gene switch assay, MsEcR-CDEF in NIH3T3 cells; conditions: MsEcR; alternative 3T3 fibroblast cell stock
T4 sequence (P49883 293-531 limits assumed): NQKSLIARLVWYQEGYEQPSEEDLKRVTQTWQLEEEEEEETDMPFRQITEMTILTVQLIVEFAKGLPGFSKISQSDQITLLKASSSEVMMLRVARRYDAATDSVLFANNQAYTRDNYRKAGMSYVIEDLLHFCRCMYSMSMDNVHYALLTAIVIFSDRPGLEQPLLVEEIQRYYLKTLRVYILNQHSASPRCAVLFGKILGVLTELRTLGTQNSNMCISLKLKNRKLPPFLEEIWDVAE

[6] = molecular target: VgEcR/RXR (Drosophila melanogaster, UniProt P34021, E282G/G283S/G286V)
[7] = Log D measurement (shake flask, pH 7.4 buffer / octanol); format: physicochemical; conditions: octanol/pH 7.4 buffer (shake flask), pH 7.4 buffer / water-saturated octanol, read-out: Experimental logD
Description: (§1) Each shake flask was agitated for 60 minutes at room temperature, then allowed to stand for 1 hour at room temperature. […] Absorbance was compared to that of a reference standard at the same absorbance maximum for a 1-2% solution of the same steroid in CH3OH, allowing for up to 10 nM maxima shift due to solvent effect.

[8] = test system: EcRs (lepidopteran and non-lepidopteran); assay: Two-hybrid gene switch assays, statements across the set of ten EcRs in NIH3T3 cells; conditions: for activity across the tested set of EcRs: FIGS. 13 and 14
[9] = molecular target: T5, Bombyx mori EcR (BmEcR) (Bombyx mori, UniProt P49881); assay: Two-hybrid gene switch assay, BmEcR in NIH3T3 cells; conditions: BmEcR, Example Two; background FI=3
T5 sequence (P49881 352-589 limits assumed): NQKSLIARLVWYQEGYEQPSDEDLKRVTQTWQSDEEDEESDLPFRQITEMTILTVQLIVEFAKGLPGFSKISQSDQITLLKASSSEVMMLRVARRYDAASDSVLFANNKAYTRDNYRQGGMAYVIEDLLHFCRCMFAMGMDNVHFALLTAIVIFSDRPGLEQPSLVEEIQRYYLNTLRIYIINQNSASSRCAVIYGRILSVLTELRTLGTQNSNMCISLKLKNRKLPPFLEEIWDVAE

[10] = Water solubility measurement (saturated solutions, 25° C., UV absorbance)
Description: as §1

[11] = molecular target: Bemisia argentifolii EcR (BaEcR-DEF) (Bemisia argentifolii (Bemisia tabaci biotype B / MEAM1), UniProt A0A6M3RDR8); assay: Two-hybrid gene switch assay, BaEcR-DEF in NIH3T3 cells
[12] = read-out: EC50 (M), BII bioassay results, D. melanogaster BII cell line, turbidometric
[13] = Drosophila melanogaster, read-out: EC50 (M), BII bioassay results
[14] = wt-CfEcR gene switch, NIH3T3, Example One

Chain of VgEcR/RXR (P34021 whole entry E282G/G283S/G286V): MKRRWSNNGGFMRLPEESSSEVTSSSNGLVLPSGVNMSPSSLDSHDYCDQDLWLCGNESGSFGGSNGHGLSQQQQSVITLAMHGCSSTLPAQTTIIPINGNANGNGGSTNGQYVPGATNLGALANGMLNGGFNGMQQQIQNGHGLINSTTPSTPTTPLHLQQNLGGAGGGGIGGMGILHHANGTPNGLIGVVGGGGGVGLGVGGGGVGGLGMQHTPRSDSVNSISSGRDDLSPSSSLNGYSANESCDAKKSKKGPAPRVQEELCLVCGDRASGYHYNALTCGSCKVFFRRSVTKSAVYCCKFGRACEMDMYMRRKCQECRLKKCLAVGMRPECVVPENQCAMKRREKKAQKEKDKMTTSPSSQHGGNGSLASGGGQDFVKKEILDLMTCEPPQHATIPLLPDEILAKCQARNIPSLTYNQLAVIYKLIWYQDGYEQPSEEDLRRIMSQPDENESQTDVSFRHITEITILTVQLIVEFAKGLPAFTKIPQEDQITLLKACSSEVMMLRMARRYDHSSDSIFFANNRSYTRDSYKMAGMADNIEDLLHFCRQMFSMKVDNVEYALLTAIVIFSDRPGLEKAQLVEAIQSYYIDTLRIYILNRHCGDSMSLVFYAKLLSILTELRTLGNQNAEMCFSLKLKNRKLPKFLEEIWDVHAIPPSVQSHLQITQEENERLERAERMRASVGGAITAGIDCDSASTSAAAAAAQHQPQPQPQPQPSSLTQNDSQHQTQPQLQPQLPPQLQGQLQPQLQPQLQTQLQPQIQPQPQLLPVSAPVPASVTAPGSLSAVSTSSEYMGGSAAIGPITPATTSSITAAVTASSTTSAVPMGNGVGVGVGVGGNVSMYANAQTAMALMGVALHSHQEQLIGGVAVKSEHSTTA
Chain of VgEcR/RXR (P19793 whole entry, further chain): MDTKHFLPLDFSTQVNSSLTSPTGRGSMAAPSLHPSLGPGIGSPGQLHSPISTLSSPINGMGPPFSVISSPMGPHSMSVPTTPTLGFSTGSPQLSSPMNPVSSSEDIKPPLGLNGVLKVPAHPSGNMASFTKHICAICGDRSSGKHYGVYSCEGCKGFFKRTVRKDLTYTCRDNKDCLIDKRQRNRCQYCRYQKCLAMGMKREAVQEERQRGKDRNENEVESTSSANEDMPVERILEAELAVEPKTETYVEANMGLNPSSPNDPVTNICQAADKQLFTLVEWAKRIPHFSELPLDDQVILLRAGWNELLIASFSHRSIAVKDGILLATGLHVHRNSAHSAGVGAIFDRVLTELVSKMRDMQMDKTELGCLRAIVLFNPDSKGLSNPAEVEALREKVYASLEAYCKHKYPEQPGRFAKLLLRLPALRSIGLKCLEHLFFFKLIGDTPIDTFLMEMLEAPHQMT
Chain of Bemisia argentifolii EcR (BaEcR-DEF) (P28702 298-449): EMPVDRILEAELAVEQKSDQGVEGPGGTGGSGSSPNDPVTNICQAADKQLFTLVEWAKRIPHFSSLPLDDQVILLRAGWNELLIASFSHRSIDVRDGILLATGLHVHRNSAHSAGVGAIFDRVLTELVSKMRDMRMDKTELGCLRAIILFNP
Chain of Bemisia argentifolii EcR (BaEcR-DEF) (A0A6M3RDR8 entry or part of it): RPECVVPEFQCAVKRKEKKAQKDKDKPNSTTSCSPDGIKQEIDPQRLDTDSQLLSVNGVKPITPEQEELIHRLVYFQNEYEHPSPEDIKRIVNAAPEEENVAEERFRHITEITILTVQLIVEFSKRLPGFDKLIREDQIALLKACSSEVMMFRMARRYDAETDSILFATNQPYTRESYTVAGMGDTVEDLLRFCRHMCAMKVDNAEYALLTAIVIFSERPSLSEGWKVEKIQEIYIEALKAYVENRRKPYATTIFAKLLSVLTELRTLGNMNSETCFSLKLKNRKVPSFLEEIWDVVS

CO[C@H](CCC(C)C)[C@](C)(O)[C@H]1CC[C@@]2(O)C3=CC(=O)[C@@H]4C[C@@H](O)[C@@H](O)C[C@]4(C)[C@H]3CC[C@]12C [PoA-22-methyl ether]
EC50 [1]: ~2000 nM
Emax ([1]; NIH3T3, 48 h, read-out: rel max FI (diacylhydrazine), CF): 30 to 65%
rel max FI (diacylhydrazine), AA ([2]; AaEcR, relative to 3,5-dimethyl-benzoic acid N-tert-butyl-N′-(2-ethyl-3-methoxy-benzoyl)-hydrazide): ~0.8
EC50 ([2]; EC50 (μM), AA, AaEcR, NIH3T3 cells, luciferase, 48 h, ligand 0.01-33 μM): < 0.01 µM
rel max FI (diacylhydrazine), DM ([3]; DmEcR, relative to 3,5-dimethyl-benzoic acid N-tert-butyl-N′-(2-ethyl-3-methoxy-benzoyl)-hydrazide): ~0.9
EC50 ([3]; EC50 (μM), DM, DmEcR, NIH3T3 cells, luciferase, 48 h, ligand 0.01-33 μM): ~0.03 µM

CO[C@@H]1C[C@H]2C(=O)C=C3[C@H](CC[C@]4(C)[C@@H]([C@@](C)(O)[C@H](O)CCC(C)(C)O)CC[C@@]34O)[C@@]2(C)C[C@@H]1O [compound 2, 20-hydroxyecdysone, 3-methyl ether]
EC50 [4, 12]: 6e-07 M
potency of ether relative to parent [5]: lose potency

CO[C@H](CCC(C)(C)O)[C@](C)(O)C1CC[C@@]2(O)C3=CC(=O)C4C[C@@H](O)[C@@H](O)CC4(C)C3CCC12C (stereo partly drawn) [compound 4, 20-hydroxyecdysone-22-methyl ether]
BII potency relative to 20E [4]: maintains 20E potency
EC50 [4, 13]: 6.3e-09 M
EC50 ([4]; Drosophila melanogaster, read-out: −log EC50 (converted)): 6.31e-09 M
potency of ether relative to parent [5]: lose potency

CCO[C@H](CCC(C)(C)O)[C@](C)(O)C1CC[C@@]2(O)C3=CC(=O)C4C[C@@H](O)[C@@H](O)CC4(C)C3CCC12C (stereo partly drawn) [compound 5, 20-hydroxyecdysone-22-ethyl ether]
BII potency relative to 20E [4]: slightly less potent than methyl
EC50 [4, 13]: 2.2e-08 M
EC50 [1]: 4850 nM
activation at 5 µM ([1]; NIH3T3, 48 h, read-out: reporter gene induction, % of maximum fold induction): 77%
RMFI (relative maximum fold induction, relative to diacylhydrazine 30) [1, 14]: 0.77

COC1C[C@H]2C(=O)C=C3[C@H](CC[C@]4(C)[C@@H]([C@@](C)(O)C(CCC(C)(C)O)OC)CC[C@@]34O)[C@@]2(C)CC1O (stereo partly drawn) [compound 12, 20-hydroxyecdysone, 3,22-dimethyl ether]
EC50 [4, 12]: 2.2e-07 M
potency of ether relative to parent [5]: lose potency

CO[C@H](CCC(C)C)[C@](C)(O)[C@H]1CC[C@@]2(O)C3=CC(=O)[C@@H]4C[C@@H](O)[C@@H](O)C[C@]4(C)[C@H]3CC[C@]12C [compound 18, ponasterone A, 22-methyl ether]
EC50 [4, 13]: 2.2e-08 M
RMFI (relative maximum fold induction, relative to diacylhydrazine 30) [1, 14]: ~0.6
EC50 ([6]; EC50, VgEcR/RXR switch in 3T3 cells): 553 nM
EC50 ([6]; EC50, VgEcR/RXR system): 533 nM
RMFI ([6]; VgEcR/RXR system): 1.5
EC50 ([2]; EC50, AaEcR gene switch, NIH3T3, Example One): 0.00038 µM
EC50 ([3]; EC50, DmEcR gene switch, NIH3T3, Example One): 0.066 µM and ~0.066 µM

CO[C@H](CCC(C)C)[C@](C)(O)[C@H]1CC[C@@]2(OC)C3=CC(=O)[C@@H]4C[C@@H](O)[C@@H](O)C[C@]4(C)[C@H]3CC[C@]12C [compound 21, ponasterone A, 14,22-dimethyl ether]
EC50 [4, 12]: 1.7e-07 M

CO[C@H](CCC(C)C)[C@](C)(O)C1CC[C@@]2(O)C3=CC(=O)C4C[C@@H](O)[C@@H](O)CC4(C)C3=CCC12C (stereo partly drawn) [compound 22, dacryhainansterone, 22-methyl ether]
EC50 [4, 13]: 1e-07 M
RMFI (relative maximum fold induction, relative to diacylhydrazine 30) [1, 14]: ~0.3

CCC1(O[C@H](CCC(C)(C)O)[C@](C)(O)C2CC[C@@]3(O)C4=CC(=O)C5C[C@@H](O)[C@@H](O)CC5(C)C4CCC23C)CO1 (stereo partly drawn) [compound 23, 20-hydroxyecdysone, 22-(28R,S)-2′-ethyloxiranyl ether]
EC50 [4, 13]: 2.2e-05 M

CCc1c(OC)cccc1C(=O)NN(C(=O)c1cc(C)cc(C)c1)C(C)(C)C [diacylhydrazine 30]
logD [7]: 3.4
fold induction at 1 µM ([1]; NIH3T3, 48 h, read-out: reference FI (1 microM)): 806
EC50 ([8]; read-out: potency (EC50), lepidopteran receptors): 3 to 20 nM
diacylhydrazine reference FI [9]: 1776
solubility ([10]; 25 °C, thermodynamic from solid): 6.2 µg/mL (≈ 16.2 µM)
EC50 [11]: 6000 nM
potency as activator of AaEcR ([2]; Example Two): single digit nM

C=C(C)CC[C@@H](O)[C@](C)(O)[C@H]1CC[C@@]2(O)C3=CC(=O)[C@@H]4C[C@@H](O)[C@@H](O)C[C@]4(C)[C@H]3CC[C@]12C [isostachysterone C, 25,26-didehydroponasterone A]
activity across the tested set of EcRs [8]: active

CC(C)CC[C@@H](O)[C@](C)(O)[C@H]1CC[C@@]2(O)C3=CC(=O)[C@]4(O)C[C@@H](O)[C@@H](O)C[C@]4(C)[C@H]3[C@H](O)C[C@]12C [muristerone A]
EC50 [1, 14]: 7400 nM
activity across the tested set of EcRs [8]: active
Experimental aqueous solubility ([10]; 25° C.): > 2900 µg/mL
EC50 ([6]; VgEcR/RXR switch in 3T3 cells): 851 nM
EC50 ([6]; VgEcR/RXR system): 851 nM
RMFI ([6]; VgEcR/RXR system): 1.3
EC50 ([2]; AaEcR gene switch, NIH3T3, Example One): 0.009 µM
